Experimental data published in PubChem BioAssay AID1963848 (Molecular Pharmacology Branch, DTP, NCI, 2024).

Tested on: 379773-124-R-J2-PDC spheroid viability
Experiment: Anticancer human tumor 379773-124-R-J2-PDC patient-derived endometrial carcinoma cell line growth inhibition [POLQ]
Conditions: spheroids with HUVEC and MSC; for IC50: curve of first compound; for viability, T/C: stronger effect = lower value
Summary of the method: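 PDC + HUVEC + MSC complex spheroids; POLQ inhibitors ± partner drugs; top conc. at/near clinical Cmax, else 10 microM (SN-38 1 microM), half-log dilutions; 37 degrees C, 5% CO2.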
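Also: spheroids exposed to drugs for seven days before readout.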
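For viability, T/C in this document: percent viability relative to DMSO vehicle control taken as 100%.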

## CCc1cc2c(N3CCc4c(cc(Cn5ccnc5)cc4-c4cn(C)nc4C(F)(F)F)C3=O)ccnc2c(OC)n1 + COC1C(OC(N)=O)C(O)C(Oc2ccc3c(O)c(NC(=O)c4ccc(O)c(CC=C(C)C)c4)c(=O)oc3c2C)OC1(C)C
Second compound 0.0316 µM
  IC50: 3420 nM
Second compound 0.1 µM
  IC50: 2600 nM
Second compound 0.316 µM
  IC50: 2420 nM
Second compound 1 µM
  IC50: 3580 nM
Second compound 3.16 µM
  IC50: 1790 nM
Second compound 10 µM
  IC50: > 10000 nM
Second compound 0.0316 µM, first compound 0.0316 µM
  viability, T/C: 79.6%
Second compound 0.0316 µM, first compound 0.1 µM
  viability, T/C: 68.7%
Second compound 0.0316 µM, first compound 0.316 µM
  viability, T/C: 62.5%
Second compound 0.0316 µM, first compound 1 µM
  viability, T/C: 58.6%
Second compound 0.0316 µM, first compound 3.16 µM
  viability, T/C: 52.4%
Second compound 0.0316 µM, first compound 10 µM
  viability, T/C: 42.6%
Second compound 0.1 µM, first compound 0.0316 µM
  viability, T/C: 79.5%
Second compound 0.1 µM, first compound 0.1 µM
  viability, T/C: 64.2%
Second compound 0.1 µM, first compound 0.316 µM
  viability, T/C: 59.7%
Second compound 0.1 µM, first compound 1 µM
  viability, T/C: 56.1%
Second compound 0.1 µM, first compound 3.16 µM
  viability, T/C: 52.3%
Second compound 0.1 µM, first compound 10 µM
  viability, T/C: 42.3%
Second compound 0.316 µM, first compound 0.0316 µM
  viability, T/C: 75.8%
Second compound 0.316 µM, first compound 0.1 µM
  viability, T/C: 68%
Second compound 0.316 µM, first compound 0.316 µM
  viability, T/C: 59.1%
Second compound 0.316 µM, first compound 1 µM
  viability, T/C: 57.2%
Second compound 0.316 µM, first compound 3.16 µM
  viability, T/C: 48.2%
Second compound 0.316 µM, first compound 10 µM
  viability, T/C: 42.3%
Second compound 1 µM, first compound 0.0316 µM
  viability, T/C: 66.7%
Second compound 1 µM, first compound 0.1 µM
  viability, T/C: 65.4%
Second compound 1 µM, first compound 0.316 µM
  viability, T/C: 58.3%
Second compound 1 µM, first compound 1 µM
  viability, T/C: 58.1%
Second compound 1 µM, first compound 3.16 µM
  viability, T/C: 49.5%
Second compound 1 µM, first compound 10 µM
  viability, T/C: 44.7%
Second compound 3.16 µM, first compound 0.0316 µM
  viability, T/C: 77.7%
Second compound 3.16 µM, first compound 0.1 µM
  viability, T/C: 65%
Second compound 3.16 µM, first compound 0.316 µM
  viability, T/C: 55.6%
Second compound 3.16 µM, first compound 1 µM
  viability, T/C: 53.4%
Second compound 3.16 µM, first compound 3.16 µM
  viability, T/C: 52%
Second compound 3.16 µM, first compound 10 µM
  viability, T/C: 42.1%
Second compound 10 µM, first compound 0.0316 µM
  viability, T/C: 83.3%
Second compound 10 µM, first compound 0.1 µM
  viability, T/C: 59.6%
Second compound 10 µM, first compound 0.316 µM
  viability, T/C: 64.2%
Second compound 10 µM, first compound 1 µM
  viability, T/C: 63.8%
Second compound 10 µM, first compound 3.16 µM
  viability, T/C: 51.1%
Second compound 10 µM, first compound 10 µM
  viability, T/C: 51.1%
